Patent US10213507B2, “Compositions and methods for treating HIV-associated neurocognitive disorders” (THE FLORIDA INTERNATIONAL UNIVERSITY BOARD OF TRUSTEES, priority 2017, dated 2019)
Entries after “also recorded” stand apart in the source; their conditions may differ.

Key:
[1] = target: T1, σ-1 receptor (Mus musculus, UniProt O55242); conditions: pre-treatment of mice; cited from earlier work
T1 construct: from tissue; host or cells: whole animal (mice), endogenous receptor

[2] = tested on: in-vitro BBB model (brain microvascular endothelial cells, astrocytes and pericytes); experiment: In-vitro BBB model integrity (TEER); assay type: cell-based, human; conditions: free WA 2 μM in apical chamber, external magnetic field 0.8 T, 3 h
Experimental: (§1) FIGS. 3A-3B provide: A) Effect of WA and MENP on in-vitro BBB integrity: WA (2 μM) and MENPs (100 μg) were added in the upper chamber of the BBB model with magnet (0.8 T) placed underneath the culture plate for 3 h duration. After treatment, Transepithelial Electrical Resistance (TEER) values were calculated and compared with control; B) Aβ1-40 ELISA from supernatant from SHAPP cells: To study WA (2 μM) efficacy and BBB permeability without MENPs, Aβ1-40 specific enzyme-linked immunosorbent assay (ELISA) was performed using supernatant collected from the basal side of the BBB trans-well where SHAPP cells were seeded at the bottom of culture plate. (n=3; NS-Not Significant.)
(§2) In-vitro BBB model was developed using brain microvascular endothelial cells, astrocytes and pericytes. The integrity of BBB was examined by measuring the TEER values before and after addition of free WA (2 μM) and free MENPs (100 μg) to the apical chamber of in vitro BBB model.
Preparation and validation of BBB integrity: Established in vitro BBB model can be used. The BBB model can be constructed using primary endothelial cells (HBMEC), pericytes (HMVP) and astrocytes (HA). BBB formation and intactness can be determined by measuring the TEER using the REMS AutoSampler BBB device and permeability to fluorescein isothiocyanate-dextran (FITC dextran). […]

[3] = tested on: Aβ-secretion in SH-APP cells; experiment: WA BBB permeability without MENPs: Aβ1-40 ELISA of SH-APP cells in the basal chamber of the BBB trans-well; assay type: cell-based, human
Experimental: as §1, §2

[4] = tested on: HIV-1; experiment: HIV infection of CHME-5 microglial cells (p24 ELISA, LTR quantitative real-time PCR); assay type: cell-based; conditions: WA 0.5 and 1 μM, 7 dpi
Experimental: (§3) FIGS. 6A-6C show Effect of WA on HIV-1 suppression and its cytotoxicity in microglial (CHME-5) cell±HIV. […] (A) p24 study; (B) LTR and (C) Cytotoxicity study: XTT assay was performed on WA treated CHME-5 cells (n=3; *, p≤0.05; ****, p≤0.001; NS-Not Significant).
(§4) Human microglial cells (CHME-5) were infected with HIV and treated with different concentrations of WA (0.5 and 1 μM). Seven days post-infection (dpi), culture supernatant was used for p24 ELISA and cell pellet was used for the […] (LTR) measurement using quantitative real-time PCR.

[5] = tested on: HIV; experiment: HIV LTR detection in HIV-exposed SH-APP cells; assay type: cell-based; conditions: WA 2 μm, HIV 100 ng, 1 dpi; 30,000 copies with HIV alone
Description: (n=3; *, p≤0.05; **, p≤0.01; and ***, p≤0.001.)
AβPP-transfected SH-APP cells are susceptible to HIV infection.

[6] = tested on: Aβ secretion by SH-APP cells; experiment: Aβ 1-40 ELISA of culture supernatants of WA treated SH-APP cells; assay type: cell-based, human
Experimental: (n=3; *, p≤0.05; NS-Not Significant).
Human neuroblastoma cells transfected with APP gene (SH-APP) were cultured with different concentrations of WA (0.5 to 2.5 μM) and the culture supernatants were tested for Aβ 1-40 by ELISA.

[7] = tested on: Aβ-production in SH-APP cells; experiment: HIV-induced β-amyloid production in SH-APP cells by flow cytometry; assay type: cell-based, human; conditions: HIV 100 ng 7 days, WA 2 μM 48 hours, Aβ 1-40 specific antibody
Experimental: FIGS. 7A-7D show quantitative analysis of β-amyloid production after 7 days of HIV infection and 48 hours of WA treatment (2 μM) on SH-APP (neuroblastoma cell line) using flow cytometry. An increase in β-amyloid production is observed in cells treated with B) HIV-100 ng; compared to A) Control.

[8] = tested on: SH-APP cells; experiment: MTT cytotoxicity assay in SH-APP cells; assay type: cell-based, human; conditions: WA 0.5 to 2.5 μM, 48 hours
[9] = tested on: CHME-5 cells; experiment: XTT cytotoxicity assay in CHME-5 cells; assay type: cell-based; conditions: 1 μM WA, 48 hours
Experimental: as §3, §4

[10] = Binding of miR-107 to MENPs; assay type: physicochemical; conditions: 100 nM miR-107, 100 μg MENPs, PBS pH 7.4, 30 minutes
Experimental: (§5) FIGS. 2A-2B provide miR-107 binding and release. A) % binding of miR-107 with MENP with respect to different concentrations; B) Release kinetics of miR-107 from MENP surface as a function of externally applied alternating current magnetic field strength (60 and 80 Oe) at different time points (10, 20 and 30 min).
(§6) Binding kinetics with respect to different concentrations of miR-107 was performed using 100 μg of MENPs (FIG. 2A). Sample were incubated in phosphate buffered saline (PBS) (pH-7.4) and kept on vertical rotator under constant rotation (200 rpm) for 30 minutes. […] Release kinetics of miR-107 from MENPs was studied using UV spectroscopy at 260 nm. 100 nM of miR-107 was incubated with 100 μg of MENPs in 1 mL PBS (pH 7.4) for 30 mins and its release kinetics performed using alternating current magnetic field via electromagnetic coil at various time points (i.e., 10, 20, and 30 minutes).

[11] = Release of miR-107 from MENPs under alternating current magnetic field (UV spectroscopy at 260 nm); assay type: physicochemical; conditions: 30 mins
Experimental: as §5, §6

T1 sequence (O55242 whole entry): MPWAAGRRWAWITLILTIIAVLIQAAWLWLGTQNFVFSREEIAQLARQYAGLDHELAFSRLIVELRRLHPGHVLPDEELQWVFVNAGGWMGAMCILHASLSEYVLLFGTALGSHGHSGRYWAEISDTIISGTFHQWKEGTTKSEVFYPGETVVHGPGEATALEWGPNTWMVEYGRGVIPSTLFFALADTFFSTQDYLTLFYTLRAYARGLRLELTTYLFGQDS

## CN1CCN(CCc2ccc(Cl)c(Cl)c2)CC1.Cl.Cl [BD1063, 1-[2-(3,4-Dichlorophenyl)ethyl]-4-methylpiperazine dihydrochloride]
[1]
  cocaine-induced convulsions: significantly attenuated
  cocaine-induced locomotor stimulatory effects: significantly attenuated

## CC1=C(CO)C(=O)O[C@@H]([C@@H](C)[C@H]2CC[C@H]3[C@@H]4C[C@H]5O[C@]56[C@@H](O)C=CC(=O)[C@]6(C)[C@H]4CC[C@]23C)C1 [WA, 5,6-Epoxy-4,27-dihydroxy-1-oxowitha-2,24-dienolide]
[2]
  TEER values (BBB integrity): no difference in TEER values
[3]; WA 2 μM without MENP in the apical chamber
  Aβ-secretion in SH-APP cells in basal chamber vs untreated control: no changes in the Aβ-secretion
[3]; free WA 2 μM, not bound to MENP, apical chamber
  crossing of the BBB: could not cross the BBB
[4]; cell pellet
  HIV-1 replication, LTR levels: significant suppression
[4]; culture supernatant
  HIV-1 replication, p24 levels: significant suppression
[5]
  HIV induced LTR copies: 400 copies
[6]; 2 µM WA
  β-Amyloid production (Aβ1-40 ELISA): significantly attenuates
[6]; WA 0.5 to 2.5 μM
  Aβ secretion (Aβ 1-40): dose dependent decrease
[7]
  HIV-induced Aβ levels: significantly decreased
[8]
  cytotoxicity: do not show any cytotoxic effects; also recorded: no significant cytotoxicity
[9]
  cell viability: > 80%

## miR-107: microRNA 107, inhibitor of BACE-1 expression; SEQ ID NO: 1 (pre-miRNA), SEQ ID NO: 2 (mature) (AGCAGCAUUGUACAGGGCUAUCA; listed as RNA, chemistry not given here; listed as Homo sapiens)
[10]
  maximum miR-107 binding to MENPs: 70%
[11]; 60 Oe alternating current magnetic field
  release of miR-107 from MENPs: 75%
[11]; 100 Hz, 80 Oe alternating current magnetic field
  release of miR-107 from MENPs: ~100%
